How the values were obtained:
Type in all cases: cell-based
[1] = system: T cells; test: Immune phenotype of T cells by flow cytometry (naive and stem cell memory T cells, CAR-T production)
Protocol: (§1) CAR-T cell culture medium: 2.6% OpTmizer Expansion Basal Supplement (Thermo Fisher Scientific), 1% L-Glutamine (Thermo Fisher Scientific), and 1% Streptomycine, 2% CTS Immune Cell SR (Thermo Fisher Scientific) were added to OpTmizer CTS T-Cell Expansion basal medium (Thermo Fisher Scientific) to prepare a basal cell culture medium. To this was added 20 IU/mL or 40 IU/mL of MACS GMP IL-2 (Miltenyi Biotec). Dimethyl Sulfoxide (DMSO) (Wako Pure Chemical Industries, Ltd) was added to the respective media to obtain the designated levels and used. After Leukopak (Hemacare) was thawed, the cells were diluted in CAR-T cell culture medium to less than or equal to 2.0×10^6 cells/mL (pre-production raw material). Cell suspension: MACS GMP T-Cell TransACT (Miltenyi Biotec)=17.5:1 were seeded in culture bags and cultured in about 48 hours (cell activation step). The activated cells were diluted in culture medium using a LOVO Cell processing system (Fresenius Kabi) or a centrifuge, seeded under 6.07×10^5 cells/cm^2 in culture bags that had been previously coated with Retronectin® (Takara Bio Co., Ltd.) and a retrovirus into which a CAR gene or a CAR gene, a IL-7 gene, and a CCL19 gene had been introduced, and cultured until the next day (gene transfer process). Culture bottles (G-REX, Wilson Wolf) were seeded under 2.2×10^6 cells/cm^2 and cultured for 3-7 days to produce CAR-T cells (final products). The CAR gene used has the base sequence encoding the amino acid sequence shown in SEQ ID NO: 1, IL-7 gene used has the base sequence encoding the amino acid sequence shown in SEQ ID NO: 2, and CCL19 gene used has the base sequence encoding the amino acid sequence shown in SEQ ID NO: 3 (the same applies to the following SK-HEP-1 cells). See Table 1 for the afore mentieond sequences. CAR introduction rates into T cells were determined using CAR-targeting antigens on a BD FACSCanto II flow cytometer (BD Biosciences). The immunophenotype of T cells was measured using an anti-CD4 antibody (clone SK3, cat #344604, BioLegend), an anti-CD8 antibody (clone SK1, cat #344710, BioLegend), an anti-CCR7 antibody (clone G043H7, cat #353204, BioLegend), an anti-CD45RA antibody (clone L48, cat #337167, BD Biosciences), an anti-CD27 antibody (clone 0323, cat #302836, BioLegend), and an anti-CD95 antibody (clone DX2, cat #305612, BioLegend), and CCR7/CD45RA/CD27/CD95 positive cells in a CD4 positive or CD8 positive T cell population were used as stem cell memory T cells, and CCR7/CD45RA positive cells other than these were used as naive T cells.

[2] = system: SK-HEP-1 cells; test: Introduction of CAR gene into SK-HEP-1 cells, flow cytometry; settings: Example 8, 0.1% DMSO in transduction step, FIG. 8A
Protocol: SK-HEP-1 cell culture medium: MEM, L-Gln (+) (Thermo Fisher Scientific) was prepared by adding 10% FBS (Biosera Co., Ltd.), 1% Non-essential amino acids (Fujifilm Wako Pure Chemical Industries, Ltd.), 1% Penicillin-Streptomycin solution (Fujifilm Wako Pure Chemical Industries, Ltd.), and 1 mM Sodium pyruvate (Fujifilm Wako Pure Chemical Industries, Ltd.). Dimethyl Sulfoxide (DMSO) (Wako Pure Chemical Industries, Ltd) was added to the respective media to obtain the designated levels and used. SK-HEP-1 cells (ATCC) were diluted with SK-HEP-1 cell culture medium so that they were 2.0×10^6 cells/mL or less, seeded under 6.07×10^5 cells/cm^2 on culture plates that had been coated with retronectin (Takara Bio Co., Ltd.) and a retrovirus into which a CAR gene had been introduced, and cultured for 4 days to introduce the CAR gene into SK-HEP-1 cells. CAR-T cells were produced as described above. SK-Hep-1 cell expressing CAR were produced as discussed above. 0.1% DMSO was added in the transduction_step during its production. After production, the rate of introduction of the CAR-gene was measured by flow cytometry.

[3] = system: T cells; test: Rate of introduction of the CAR gene into T cells by flow cytometry (CAR-T production); settings: for CAR-positive rate: 0.0037%, 0.011%
Protocol: as §1

[4] = system: NK92 cells; test: Introduction of mCherry gene into NK92 cells, flow cytometry
Protocol: NK92 cell culture medium: RPMI, L-Gln (+) (Thermo Fisher Scientific) was prepared by adding 20% FBS (Biosera Co., Ltd.). Dimethyl Sulfoxide (DMSO) (Wako Pure Chemical Industries, Ltd) was added to the respective media to obtain the designated levels and used. NK92 cells (ATCC) were diluted with NK92 cell culture medium so that they were 2.0×10^6 cells/mL or less, seeded under 6.07×10^5 cells/cm^2 on culture plates with or without DMSO for 2 days. After that, NK92 cells were cultured on retronectin (Takara Bio Co., Ltd.) and a retrovirus into which a mCherry gene had been introduced, and cultured for 2 days to introduce the mCherry gene into NK92 cells. mCherry positive NK92 cells were produced as described above. DMSO from 0.01% to 0.1% was added in the pre-cultre step before transduction during its production. After production, the rate of introduction of the mCherry-gene was measured by flow cytometry.

[5] = Example 1, armored, activation step, 0.0037%, 0.011%, 0.033%, 0.1% DMSO vs no DMSO
[6] = Example 1, armored, activation step, 0.011%, 0.033%, 0.1% DMSO vs no DMSO
[7] = Example 3, armored, transduction step, 0.011%, 0.033%, 0.1%, 0.3% DMSO vs no DMSO
[8] = Example 6, unarmored, ex vivo expansion step, 0.3% DMSO vs no DMSO
[9] = Example 7, unarmored, ex vivo expansion step, 0.6-2.7% DMSO vs no DMSO

SMILES: C[S+](C)[O-] [DMSO, dimethyl sulfoxide]
- CD8 positive naive T cells [1, 5]: significantly increased
- CD8 positive stem cell memory T cells [1, 5]: significantly increased
- CD4 positive naive T cells [1, 6]: significantly increased
- CD4 positive stem cell memory T cells [1, 6]: significantly increased
- CD4 positive stem cell memory T cells ([1]; Example 2, unarmored, activation step, 0.0037%, 0.011%, 0.033%, 0.1%, 0.3% DMSO vs no DMSO): significantly increased
- CD8 positive stem cell memory T cells ([1]; Example 2, unarmored, activation step, 0.1% and 0.3% DMSO vs no DMSO): significantly increased
- CD8 positive stem cell memory T cells ([1]; Example 3, armored, transduction step, 0.0037%, 0.011%, 0.033%, 0.1% DMSO vs no DMSO): increased
- CD8 positive naive T cells ([1]; Example 3, armored, transduction step, 0.011% and 0.033% DMSO vs no DMSO): increased
- CD4 positive naive T cells [1, 7]: significantly increased
- CD4 positive stem cell memory T cells [1, 7]: significantly increased
- CD8 positive stem cell memory T cells ([1]; Example 4, unarmored, transduction step, 0.0037%, 0.011%, 0.033%, 0.01% and 0.3% DMSO vs no DMSO): increased
- CD4 positive naive T cells ([1]; Example 4, unarmored, transduction step, 0.011% and 0.033% DMSO vs no DMSO): increased
- CD8 positive stem cell memory T cells ([1]; Example 5, armored, ex vivo expansion step, 0.3% DMSO vs no DMSO): significantly increased
- CD4 positive naive T cells [1, 8]: increased
- CD4 positive stem cell memory T cells [1, 8]: increased
- CD4 positive naive T cells [1, 9]: increased
- CD4 positive stem cell memory T cells [1, 9]: increased
- CD8 positive naive T cells [1, 9]: increased
- CD8 positive stem cell memory T cells [1, 9]: increased
- CAR gene transduction in SK-Hep-1 [2]: suppresses
- CAR-positive rate ([3]; Example 1, CAR-T expressing IL-7 and CCL19 (armored), 0.033%, 0.1% DMSO in activation step (heading, FIG. 1; text says transduction step), vs no DMSO group): significantly increased
- CAR-positive rate ([3]; Example 2, CAR-T (unarmored), 0.033%, 0.1%, 0.3% DMSO in activation step (heading, FIG. 2; text says transduction step), vs no DMSO group): significantly increased
- CAR-positive rate ([3]; Example 3, armored (IL-7, CCL19), gene transduction step, 0.033%, 0.1% DMSO vs no DMSO group): significantly increased
- CAR-positive rate ([3]; Example 4, unarmored, gene transduction step, 0.033% DMSO vs no DMSO group): increased
- CAR transduction efficiency (CAR-T) ([3]; Example 8, 0.1% DMSO in transduction step, FIG. 8B): significantly improves
- mCherry transduction efficiency ([4]; Example 9, NK92 cells, 0.03% and 0.1% DMSO in pre-culture step 2 days before transduction, FIG. 9B): significantly improves
- transduction efficiency in NK92 cells (mCherry positive cells) ([4]; FIG. 9B legend, 0.01%-0.1% DMSO added in preculture step before transduction): improved

— patent US20250304914A1, “METHODS OF PRODUCING ENGINEERED IMMUNE CELLS” (Takeda Pharmaceutical Company Limited, priority 2022, published 2025)
